Test results reported in patent publication US20230384333A1 (priority 2020, published 2023).
Entries after “also recorded” stand apart in the source; their conditions may differ. Where two headings read alike, the source gives them in different places.

Key:
[1] = system: psychLight2; format: cell-based, human
Method: Compounds unlikely to bind to the sensor should produce minimal to no response in either agonist or antagonist mode. Therefore, a ligand score was calculated as: […]

[2] = system: C57BL/6J mice; test: Head-twitch response (HTR) assay; format: in vivo, mouse; conditions: i.p., multiple doses
Method: The HTR assay was performed as described previously using both male and female C57BL/6J mice (2 male and 2 female=4 total per treatment). The mice were obtained from The Jackson Laboratory (Sacramento, C.A.) and were approximately 8-weeks old at the time of the experiments. Compounds were administered (5 mL/kg, i.p.) using 0.9% saline as the vehicle. After injection, animals were placed into an empty cage (8″×13″×5″) and HTRs were videotaped, scored later by two blinded observers, and the results were averaged (interpersonnel kappas, Pearson correlation coefficient>0.91). Locomotion was assessed using AnyMaze automated tracking software.

[3] = target: psychLight1 (Homo sapiens, UniProt P28223, E264Q/I181A); test: cell-based; format: cell-based
Sequence of psychLight1 (Homo sapiens, UniProt P28223, E264Q/I181A) (P28223 whole entry I181A/E264Q, looked up): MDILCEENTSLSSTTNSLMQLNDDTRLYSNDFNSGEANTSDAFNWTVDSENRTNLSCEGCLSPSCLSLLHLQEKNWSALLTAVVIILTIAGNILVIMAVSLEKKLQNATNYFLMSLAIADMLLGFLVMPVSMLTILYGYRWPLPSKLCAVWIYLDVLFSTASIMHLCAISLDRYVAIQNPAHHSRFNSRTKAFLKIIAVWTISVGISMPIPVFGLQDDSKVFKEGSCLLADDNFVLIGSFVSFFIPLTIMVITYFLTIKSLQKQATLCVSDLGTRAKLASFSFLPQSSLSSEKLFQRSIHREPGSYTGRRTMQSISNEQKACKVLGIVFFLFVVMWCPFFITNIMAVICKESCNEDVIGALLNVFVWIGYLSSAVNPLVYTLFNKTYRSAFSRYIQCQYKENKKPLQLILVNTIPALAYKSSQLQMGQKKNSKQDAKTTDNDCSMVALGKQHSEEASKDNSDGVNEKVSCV
Method: (§1) HEK293T cells were grown in DMEM, supplemented with fetal bovine serum (FBS) and penicillin-streptomycin. Cells were trans-fected with Effectene according to the manufacturer's instructions. Prior to imaging, cells were washed with Hank's Balanced Salt Solution (HBSS) supplemented with 2 mM MgCl2 and 2 mM CaCl2). All images were collected in HBSS containing Mg^2+ and Ca^2+.
(§2) HEK293T cells were plated and transfected concurrently 24 h prior to each experiment using the QIAGEN Effectene Transfection
(§3) Dose-response experiments were performed using an Automate Perfusion System. Cells (HEK293T) were grown on 12 mm cover-slips and transfected with psychLight1. The coverslips were then placed into a coverslip holder and washed with 5 mL of HBSS containing 2 mM MgCl2 and 2 mM CaCl2). Cells were perfused first with 5 mL of 0.1% DMSO, then drugs in ascending concentrations from 1 pM to […] were added, with the concentration of DMSO being held constant at 0.10%. […] For the competition studies described in FIG. 19, HEK293T cells were prepared as described above; however, the cells were first exposed to 5 mL of 0.2% DMSO. […] Analysis was performed by taking 3 ROIs on the cell membrane using ImageJ and calculating the mean intensity for each ROI across the time-points. Finally, the DF/F was calculated using the average of the baseline (0.1 or 0.2% DMSO) and the average intensity between each dosage over the average of the baseline.

[4] = system: psychLight2; test: PSYLI2 high-content imaging, agonist mode; format: cell-based, human
Method: (§4) High-Content Imaging Experiments. Glass bottom 96-well plates (P96-1.5H-N, Cellvis) were coated with 50 μg/mL of poly-D-lysine (Sigma, P6407-5MG) and 10 μg/mL laminin (Sigma, L2020) overnight in an incubator (37° C., 5% CO2). […] Immediately prior to an experiment, stock solutions of drugs in DMSO (10 mM) were first diluted 1:100 in imaging media distributed across an empty 96-well plate (treatment plate) in triplicates following a randomized plate map. […] Cells grown in a separate 96-well plate (assay plate) were gently washed (3×) with imaging media, and the wells were filled with an appropriate volume of imaging media for the respective experiment (vide infra).
(§5) For agonist mode, […] of imaging media was added to each well of the assay plate. Wells were then imaged on a Lecia DMi8 using Leica Application Suite X (V3.6.0.20104) at 40×(N.A.=0.6) with 5 regions of interest (ROI) taken per well using the default 5 ROI pattern for each well with no bias to location and no overlap of the ROIs (exposure=350 ms, LED power=80%). Next, 20 μL from the treatment plate was transferred to the assay plate for a total 1:1000 dilution of drug (10 μM drug, 0.1% DMSO). […] All final concentrations of drugs were 10 μM (0.1% DMSO) in agonist mode unless stated otherwise. After 5 min of incubation, the same sites were re-imaged using the same settings.
Once imaging was complete, the images were exported, put into a stack, and analyzed using ImageJ Fiji (ver. 1.51v) by using the rectangle function to draw an ROI around the cell membrane (one cell per image) on both the pre- and posttreatment images. ROI sizes within each plate were kept the same and saved to the ROI manager in ImageJ (ctrl+T). Images were then measured using the “multi measure” function in the ROI manager. Measurements were saved and exported. Analysis of the data was done by taking the average of each individual well's ROIs before and after drugs were added. Then the ΔF/F values for each well were calculated using the following equation: […]
as §4, with “Glass” for “High-Content Imaging Experiments. Glass”, “50 µg/mL” for “50 μg/mL”, “10 pg/mL of” for “10 μg/mL”, “were” for “were first”, “in triplicate” for “in triplicates”, “washed 3×” for “washed (3×)”
as §5, with “agonist mode experiments,” for “agonist mode,”, “media were” for “media was”, “20 pL” for “20 μL”, “plate containing” for “plate for”, “a” for “a total”, “(10 pM as the final concentration in” for “(10 μM drug,”
Once imaging was complete, the images were exported, and analyzed using self-written MATLAB script. Script will be deposit on to Github. In short, segmentation was performed on individual images and a mask highlighting the membrane of the HEK293T cells was generated. Pixel intensities were obtained from the mask-highlighted area and exported into Excel. The ΔF/F values for each well were calculated using the following equation: […]

[5] = system: psychLight1; test: cell-based; format: cell-based, human; conditions: read-out: EC50 (half maximal effective concentration)
Method: as §1, §2, §3

[6] = system: psychLight; format: cell-based, human
[7] = system: psychLight2 response to electrically evoked 5-HT release; design: species or system mouse
[8] = system: psychLight; test: Schild regression analysis in PSYLI2 cells; format: cell-based, human
Method: During imaging, […] of imaging media were added to each well of the assay plate. Wells were then imaged on a Lecia DMi8 using Leica Application Suite X (V3.6.0.20104) at 40×(N.A.=0.6) with 5 regions of interest (ROI) taken per well using the default 5 ROI pattern for each well with no bias to location and no overlap of the ROIs (exposure=350 ms, LED power=80%). Next, […] from the treatment plate was transferred to the assay plate for a final 1:1000 dilution of drug. All final drug treatments contained 0.1% DMSO. After 5 min of incubation, the same sites were re-imaged using the same settings. The data analysis method was the same as in agonist and antagonist mode.

[9] = HEK293T cells expressing psychLight
[10] = 10 μM compound, hit limit 1 SD from vehicle

Molecule: CN(C)CCc1c[nH]c2ccc(Br)cc12 [5-Br-DMT, 5-bromo-N,N-dimethyltryptamine]
- ligand score [1]: negative ligand score
- head-twitch response (HTR) [2]: did not induce head-twitches at any dose; also recorded: failed to induce HTRs at any dose

Molecule: CN(C)CCc1c[nH]c2ccc(Cl)cc12 [5-Cl-DMT, 5-chloro-N,N-dimethyltryptamine]
- ligand score [1]: positive ligand scores
- head-twitch response (HTR) [2]: produced robust HTRs

Molecule: CN(C)CCc1c[nH]c2ccc(F)cc12 [5-F-DMT, 5-flouo-N,N-dimethyltryptamine]
- ligand score [1]: positive ligand scores
- head-twitch response (HTR) [2]: produced robust HTRs

Molecule: NCCc1c[nH]c2ccc(O)cc12 [5-HT, serotonin]
- fluorescence intensity change, confocal with psychLight1 [3]: 77.3±2.4%
- PSYLI2 response (positive and negative controls) [4]: 44.8±0.8%
- fluorescence intensity change, high content imager with psychLight2 [4]: 38.2±2.4%
- ΔF/F PSYLI2 fluorescence, panel of tryptamines [4]: 46.3%±1.4%

Molecule: CN(C)CCc1c[nH]c2ccc(O)cc12 [BUFO, N,N-dimethylserotonin]
- ΔF/F PSYLI2 fluorescence, panel of tryptamines [4]: 22.3%±2.8%

Molecule: CN(C)CCc1c[nH]c2ccccc12 [DMT, N,N-dimethyltrytamine]
- Emax ([3]; HEK-293T): 12.4%
- EC50 [5]: 627 nM
- screen outcome in agonist mode [4]: false negative

Molecule: NCCCC(=O)O [GABA, y-aminobutyric acid]
- response of psychLight to neurotransmitters [6, 9]: do not respond

Molecule: O=C(c1ccc(F)cc1)C1CCN(CCn2c(=O)[nH]c3ccccc3c2=O)CC1 [KETSN, ketanserin]
- block of 5-HT-induced activation of psychLight [3]: able to block 5-HT-induced activation of psychLight
- effect on psychLight fluorescence [3]: neutral antagonists; also recorded: minimal effect on psychLight1 fluorescence or slightly quenched the sensor
- fluorescence intensity change, confocal with psychLight1 [3]: −1.7±0.3%
- PSYLI2 response (positive and negative controls) [4]: −12.7±0.5%
- fluorescence intensity change, high content imager with psychLight2 [4]: −3.5±1.6%
- block of psychLight fluorescence to electrically evoked 5-HT transients [7]: sufficient to block psychLight fluorescence
- peak response to field stimulation of BNST slices ([7]; KETSN 10 μM, N=5 slices): 0±0.36%

Molecule: CCN(CC)C(=O)N[C@H]1C=C2c3cccc4[nH]cc(c34)C[C@H]2N(C)C1 [LIS, lisuride]
- Schild regression (pA2) outcome [8]: potent psychLight competitive antagonists

Molecule: CNCCc1c[nH]c2ccc(O)cc12 [N-5-HT, N-methylserotonin]
- ΔF/F PSYLI2 fluorescence, panel of tryptamines [4]: 24.6%±1.7%

Molecule: c1ccc(C2(N3CCCCC3)CCCCC2)cc1 [PCP, Phencyclidine]
- screen outcome in agonist mode [4]: did not activate the sensor
- ligand score [1]: ~0

Molecule: C[C@H](Cc1ccccc1)N(C)C [R-dimethamphetamine, (R)-dimethamphetamine]
- screen outcome in agonist mode [4, 10]: potential hallucinogenic hits

Molecule: CN1CCc2cccc3c2[C@H]1Cc1ccc(O)c(O)c1-3 [apomorphine, R-(−)-apomorphine]
- Schild regression (pA2) outcome [8]: potent psychLight competitive antagonists

Molecule: CN1[C@@H]2CC[C@H]1C[C@@H](OC(c1ccccc1)c1ccccc1)C2 [benztropine]
- Schild regression (pA2) outcome [8]: potent psychLight competitive antagonists

Molecule: NCCc1ccc(O)c(O)c1 [dopamine]
- response of psychLight to neurotransmitters [6]: do not respond

Molecule: N[C@@H](CCC(=O)O)C(=O)O [glutamate, L-glutamic acid]
- response of psychLight to neurotransmitters [6, 9]: do not respond

Molecule: CN1C2CCCC1CC(NC(=O)c1nn(C)c3ccccc13)C2 (stereo not shown) [granisetron]
- block of psychLight fluorescence to electrically evoked 5-HT transients [7]: sufficient to block psychLight fluorescence

Molecule: NC[C@H](O)c1ccc(O)c(O)c1 [norepinephrine]
- response of psychLight to neurotransmitters [6, 9]: do not respond

Molecule: COC(=O)[C@@H]1C[C@H](OC(C)=O)C(=O)[C@H]2[C@@]1(C)CC[C@H]1C(=O)O[C@H](c3ccoc3)C[C@]21C [salvinorin A]
- screen outcome in agonist mode [4, 10]: did not activate the sensor
- ligand score [1]: ~0

Molecule: NCCc1c[nH]c2ccccc12 [tryptamine]
- ΔF/F PSYLI2 fluorescence, panel of tryptamines [4]: robust response

Molecule: tetrodotoxin citrate
- block of psychLight fluorescence to electrically evoked 5-HT transients [7]: sufficient to block psychLight fluorescence
